In ChEMBL document CHEMBL1123584, “Xanthine functionalized congeners as potent ligands at A2-adenosine receptors” (J Med Chem, 1987):

Assays:
[1] = target: T1, Adenosine A2 receptor (Homo sapiens) (UniProt P29275+P29274); experiment: Antagonism of NECA-induced stimulation of adenylate cyclase activity in human platelet membranes at A2-adenosine receptor; value ranges from 75-370; assay type: functional, cell membranes
[2] = Partition coefficient (logP); assay type: physicochemical; conditions: octanol/water
[3] = target: T1, Adenosine A2 receptor (Homo sapiens); experiment: Antagonism of NECA-induced stimulation of adenylate cyclase activity in human platelet membranes at A2-adenosine receptor; value ranges from […]-[…]; assay type: functional, cell membranes
[4] = target: T1, Adenosine A2 receptor (Homo sapiens); experiment: Antagonism of NECA-induced stimulation of adenylate cyclase activity in human platelet membranes at A2-adenosine receptor; value ranges from 54-98; assay type: functional, cell membranes
Adenosine receptor A1 = target: T2, Adenosine receptor A1 (Rattus norvegicus, UniProt P25099); experiment: Inhibition of [3H]- PIA binding at adenosine A1 receptor on rat cerebral cortex membranes.; assay type: cell membranes, Membrane
T2 sequence (P25099 whole entry): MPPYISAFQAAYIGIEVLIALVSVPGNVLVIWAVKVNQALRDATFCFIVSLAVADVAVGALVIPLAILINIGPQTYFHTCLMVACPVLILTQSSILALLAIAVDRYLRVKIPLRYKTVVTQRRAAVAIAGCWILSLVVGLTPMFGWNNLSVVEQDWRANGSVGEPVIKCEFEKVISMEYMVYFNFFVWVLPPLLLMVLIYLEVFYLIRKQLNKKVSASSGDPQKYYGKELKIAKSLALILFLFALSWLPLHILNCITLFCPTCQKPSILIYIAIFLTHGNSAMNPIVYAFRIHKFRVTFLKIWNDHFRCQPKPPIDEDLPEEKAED

[5] = target: T1, Adenosine A2 receptor (Homo sapiens); experiment: Antagonism of NECA-induced stimulation of adenylate cyclase activity in human platelet membranes at A2-adenosine receptor; value ranges from 100-540; assay type: functional, cell membranes
[6] = target: T1, Adenosine A2 receptor (Homo sapiens); experiment: Antagonism of NECA-induced stimulation of adenylate cyclase activity in human platelet membranes at A2-adenosine receptor; value ranges from 106-173; assay type: functional, cell membranes
[7] = target: T1, Adenosine A2 receptor (Homo sapiens); experiment: Antagonism of NECA-induced stimulation of adenylate cyclase activity in human platelet membranes at A2-adenosine receptor; value ranges from 30-54; assay type: functional, cell membranes
[8] = target: T1, Adenosine A2 receptor (Homo sapiens); experiment: Antagonism of NECA-induced stimulation of adenylate cyclase activity in human platelet membranes at A2-adenosine receptor; assay type: functional, cell membranes
[9] = target: T1, Adenosine A2 receptor (Homo sapiens); experiment: Antagonism of NECA-induced stimulation of adenylate cyclase activity in human platelet membranes at A2-adenosine receptor; value ranges from 17-30; assay type: functional, cell membranes
[10] = target: T1, Adenosine A2 receptor (Homo sapiens); experiment: Antagonism of NECA-induced stimulation of adenylate cyclase activity in human platelet membranes at A2-adenosine receptor; value ranges from 35-40; assay type: functional, cell membranes
[11] = target: T1, Adenosine A2 receptor (Homo sapiens); experiment: Antagonism of NECA-induced stimulation of adenylate cyclase activity in human platelet membranes at A2-adenosine receptor; value ranges from 15-51; assay type: functional, cell membranes

For `CCC(=O)OCOc1ccc(-c2nc3c(=O)n(CC)c(=O)n(CC)c3[nH]2)cc1`, the Kb [1] was 170 nM.
`Cn1c(=O)c2nc(-c3ccc(OCC(=O)Nc4ccc(CC(=O)NCCN)cc4)cc3)[nH]c2n(C)c1=O` gave a logP [2] of -0.05 and a Kb [3] of 63 nM.
`CCn1c(=O)c2nc(-c3ccc(OCC(=O)OC(C)C)cc3)[nH]c2n(CC)c1=O` gave a Kb [4] of 73 nM and a Ki (Adenosine receptor A1) of 90 nM.
`CCn1c(=O)c2nc(-c3ccc(OCC(=O)Nc4ccc(C)cc4)cc3)[nH]c2n(CC)c1=O` showed a Kb [3] of 100 nM.
`CCOC(=O)COc1ccc(-c2nc3c(=O)n(CC)c(=O)n(CC)c3[nH]2)cc1` showed a Ki (Adenosine receptor A1) of 140 nM.
For `CCn1c(=O)c2nc(-c3ccc(OCC(=O)Nc4ccc(CC(=O)OC)cc4)cc3)[nH]c2n(CC)c1=O`, the Kb [3] was 210 nM.
Work on `CCn1c(=O)c2nc(-c3ccc(OCC(=O)NCCN)cc3)[nH]c2n(CC)c1=O` yielded a Kb [3] of 21 nM.
Compound `CCCn1c(=O)c2nc(-c3ccc(OCC(=O)OCC)cc3)[nH]c2n(CCC)c1=O` has a Ki (Adenosine receptor A1) of 13 nM.
`CCn1c(=O)c2[nH]c(-c3ccc(OCC(=O)NCCN)cc3)nc2n(CC)c1=O` gave a logP [2] of -0.06.
`CCn1c(=O)c2nc(-c3ccc(OCC(=O)NCCNC(=O)C(CCCCNC(=O)OCc4ccccc4)NC(=O)OC(C)(C)C)cc3)[nH]c2n(CC)c1=O` (stereo not drawn) gave a Kb [5] of 230 nM.
For `Cn1c(=O)c2[nH]c(-c3ccc(OCC(=O)NCCN)cc3)nc2n(C)c1=O`, the logP [2] was -0.63.
`CCCn1c(=O)c2nc(-c3ccc(OCOC(=O)CC)cc3)[nH]c2n(CCC)c1=O` gave a Kb [6] of 135 nM.
Work on `CCCn1c(=O)c2[nH]c(-c3ccc(OCC(=O)NCCN)cc3)nc2n(CCC)c1=O` [XANTHINE AMINE CONGENER] yielded a logP [2] of 0.81.
For `Cn1c(=O)c2nc(-c3ccc(OCC(=O)NCCN)cc3)[nH]c2n(C)c1=O`, the Kb [7] was 40 nM.
`CCn1c(=O)c2nc(-c3ccccc3)[nH]c2n(CC)c1=O` showed a Kb [8] of 210 nM.
Work on `CCn1c(=O)c2nc(-c3ccc(OCC(=O)NCCNC(=O)[C@@H](N)CCCCN)cc3)[nH]c2n(CC)c1=O` yielded a logP [2] of -1.2 and a Kb [9] of 23 nM.
In the case of `CCCn1c(=O)c2nc(-c3ccc(OCC(=O)NCCNC(=O)[C@@H](N)CCCCN)cc3)[nH]c2n(CCC)c1=O`, the Kb [10] is reported as 37 nM.
`CCCn1c(=O)c2[nH]c(-c3ccc(OCC(=O)NCCNC(=O)[C@@H](N)CCCCN)cc3)nc2n(CCC)c1=O` showed a Ki (Adenosine receptor A1) of 0.87 nM.
`CCn1c(=O)c2nc(-c3ccc(OCC(=O)Nc4ccc(CC(=O)NCCN)cc4)cc3)[nH]c2n(CC)c1=O` gave a Kb [11] of 28 nM.
In the case of `Cn1c(=O)c2nc(-c3ccccc3)[nH]c2n(C)c1=O`, the Kb [8] is reported as 1900 nM.
